Values of other authors as cited in article PMC6978833 (ACS Central Science, 2019).

Details: N3 of base in TAT / CGC triplets

Nc1cc[nH]c(=O)n1 [cytosine]
pKa (N3 protonation): ~6.5

Cc1c[nH]c(=O)[nH]c1=O [thymine]
pKa (N3 protonation): ~10
